The values below come from article PMC12423841 (ACS Omega, 2025).

The test system of data set [1] is VSV pseudotyped with the SARS-CoV-2 Wuhan-Hu-1 S. Description: organism not typed. It counts as cell-based. Particulars: for antiviral activity (reduction of viral entry) versus cellular toxicity: VSVΔG-SWh in VeroE6 cells, various concentrations; for EC50: Vero C1008, read-out: EC50 (concentration reducing infection by VSV pseudotyped with the SARS-CoV-2 Wuhan-Hu-1 S by 50%).

The next data set in a line: in vitro. The following applies: African green monkey.
Data set [2] has as its system SARS-CoV-2 in A549-ACE2 cells. The format is cell-based. The following applies: 24 h, compounds 20 μM, remdesivir 30 μM.
Data set [3] deals with SARS-CoV-2 in VeroE6-TMPRSS2 cells. It counts as cell-based. Particulars: 24 h, compounds 20 μM, remdesivir 30 μM.
The test system of data set [4] is VSV pseudotyped with SARS-CoV-2 Delta Spike. The format is cell-based. Particulars: dose response.
Data set [5] concerns VSV pseudotyped with SARS-CoV-2 Omicron BA.1 Spike. It counts as cell-based. The following applies: dose response.
Data set [6] concerns VSV pseudotyped with SARS-CoV-1 Spike. The format is cell-based.

As for `C=C1CC[C@H](O)C/C1=C/C=C1\CCC[C@]2(C)[C@@H]([C@H](C)CCCC(C)(C)O)CC[C@@H]12` [calcifediol], in data set [1], the “antiviral activity (reduction of viral entry) versus cellular toxicity” value is given as “antiviral activity could not be separated from toxicity” and the EC50 was 6.13 ± 3.52 µM. Also, the CC50 in the data set “in vitro” was found to be 16.8 ± 0.5 µM.
On the same counts, the results for `C=C1CC[C@H](O)C/C1=C/C=C1\CCC[C@]2(C)[C@@H]([C@H](C)CCCC(C)C)CC[C@@H]12` [cholecalciferol] are “showed antiviral activity in the absence of toxicity”, 14.8 ± 4.11 µM and 83.7 ± 6.12 µM.
In the case of `CC(C)c1c(CN(C)C(C)Cc2ccccc2)n(C)n(-c2ccccc2)c1=O` (stereo not shown) [famprofazone], in data set [1], the “antiviral activity (reduction of viral entry) versus cellular toxicity” value is listed as “showed antiviral activity in the absence of toxicity” and the EC50 came to 7.64 ± 4.55 µM. Moreover, in data set [2], the “virus production after SARS-CoV-2 infection” value (shortened to “virus production”) was “statistically significant reduction of virus production”. The compound further returned a CC50 in the data set “in vitro” of 79 ± 2.75 µM.
Turning to `CCCCCCCCc1ccc(CCC(N)(CO)CO)cc1` [fingolimod], in data set [1], the “antiviral activity (reduction of viral entry) versus cellular toxicity” value is listed as “showed antiviral activity in the absence of toxicity” and the EC50 worked out at 7.12 ± 2.25 µM. In addition, in data set [1] (dose response), the “inhibition of infection by VSV pseudotyped with SARS-CoV-2 Wuhan Spike” value is reported as “dose-dependent reduction”. For the same compound, the “virus production” value in data set [2] is listed as “statistically significant reduction of virus production”. Also, in data set [3], the “virus production” value was “significant reduction”. Also, the “inhibition of infection by VSV pseudotyped with SARS-CoV-2 Delta Spike” value in data set [4] is reported as “dose-dependent reduction”. The “inhibition of infection by VSV pseudotyped with SARS-CoV-2 Omicron BA.1 Spike” value in data set [5] is listed as “dose-dependent reduction”. Also, in data set [6], the “inhibition of infection by VSV pseudotyped with SARS-CoV-1 Spike” value is “dose-dependent reduction”. Also, the CC50 in “in vitro” amounted to 20.4 ± 19.6 µM.
As for `CC[N+](C)(CC)CCOC(=O)C(O)(c1ccccc1)C1CCCCC1` (stereo not shown) [oxyphenomium], in data set [1], the “antiviral activity (reduction of viral entry) versus cellular toxicity” value was “could not be observed”.
Turning to `CCC(CC)COC(=O)[C@H](C)N[P@](=O)(OC[C@H]1O[C@@](C#N)(c2ccc3c(N)ncnn23)[C@H](O)[C@@H]1O)Oc1ccccc1` [remdesivir], the “virus production” value in data set [2] and in data set [3] was “reduced viral replication significantly” in each case.
